This passage reports specific activity results from paper PMC3454380, “Chloroplast NADPH-Dependent Thioredoxin Reductase from Chlorella vulgaris Alleviates Environmental Stresses in Yeast Together with 2-Cys Peroxiredoxin” (PLoS ONE, 2012).

The target of assay [1] is T1, His-mCvNTRC (mature C. vulgaris NTRC) (Chlorella vulgaris, UniProt B9ZYY5).
T1 construct: gene CvNTR-C; mature form (NTR domain plus C-terminal Trx domain) without transit peptide, C-terminal His-tag, pET-29b(+), E. coli BL21(DE3)pLysS
T1 sequence (B9ZYY5 58-529): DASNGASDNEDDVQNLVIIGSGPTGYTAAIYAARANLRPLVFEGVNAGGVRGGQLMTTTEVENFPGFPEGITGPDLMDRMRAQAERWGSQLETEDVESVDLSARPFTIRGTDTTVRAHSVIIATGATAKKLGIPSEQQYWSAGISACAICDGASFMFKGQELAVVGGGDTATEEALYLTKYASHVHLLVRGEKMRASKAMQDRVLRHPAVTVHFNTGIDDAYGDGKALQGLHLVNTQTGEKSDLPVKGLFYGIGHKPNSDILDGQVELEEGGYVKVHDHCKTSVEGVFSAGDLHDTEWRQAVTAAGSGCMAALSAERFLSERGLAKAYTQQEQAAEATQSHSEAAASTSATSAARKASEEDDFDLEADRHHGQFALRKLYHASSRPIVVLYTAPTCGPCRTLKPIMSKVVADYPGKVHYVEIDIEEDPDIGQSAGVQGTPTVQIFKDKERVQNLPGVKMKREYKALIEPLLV
Kind of assay: NADPH oxidation at […] nm, coupled to His-mCvPrx and peroxide. Particulars: 300 uM NADPH, 100 uM peroxide, 4.0 uM His-mCvNTRC, 4.0 uM His-mCvPrx, 1 mM EDTA, 50 mM Na-phosphate pH 7.0. It is filed as biochemical.

Assay [2] concerns the target T2, His-mCvPrx (mature C. vulgaris 2-Cys Prx) (Chlorella vulgaris, UniProt K4PW22).
T2 construct: mature form without predicted chloroplast transit peptide, bp 161-745 of cDNA, 194 residues of 239 (46-239 if ORF starts at bp 26); His-tagged, pTrc99A, E. coli JM109, five synonymous rare-codon changes
T2 sequence (K4PW22 46-239): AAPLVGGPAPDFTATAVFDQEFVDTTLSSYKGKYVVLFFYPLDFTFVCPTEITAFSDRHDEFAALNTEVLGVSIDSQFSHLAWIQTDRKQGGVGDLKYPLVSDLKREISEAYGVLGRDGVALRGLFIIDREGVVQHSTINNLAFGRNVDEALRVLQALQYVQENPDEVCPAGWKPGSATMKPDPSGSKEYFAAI
Kind of assay: NADPH oxidation at […] nm, reconstituted with His-mCvNTRC. It is filed as biochemical. The note with it: 300 uM NADPH, 4.0 uM His-mCvPrx, 4.0 uM His-mCvNTRC as reductant, 1 mM EDTA, 50 mM Na-phosphate pH 7.0.

Consider `NC(=O)C1=CN([C@@H]2O[C@H](COP(=O)(O)OP(=O)(O)OC[C@H]3O[C@@H](n4cnc5c(N)ncnc54)[C@H](OP(=O)(O)O)[C@@H]3O)[C@@H](O)[C@H]2O)C=CC1` [NADPH], for which the specific activity entry in assay [1] is listed as “the mCvNTRC/mCvPrx system used NADPH as a specific coenzyme to reduce peroxides”.
For the molecule `O=NOO` [peroxynitrite], the specific activity result in assay [2] (100 uM peroxynitrite) is “the mCvNTRC/mCvPrx antioxidant system could decompose ONOO^−”.
Take `CC(C)(C)OO` [tert-butyl hydroperoxide]: in assay [2] (100 uM t-BOOH), the specific activity result was “a remarkably high rate of NADPH oxidation against both H2O2 and t-BOOH”.
